{"source": "patent US9308284B2", "about": "“Formulations of fluorinated stilbene suitable for PET imaging” (PIRAMAL IMAGING SA, priority 2011, dated 2016)", "key": {"[1]": {"assay": "Stability of Formulation 1 comprising HCl salt of Compound 1 for 12 hours at room temperature", "assay_type": "physicochemical", "experimental": "The term “concentration interval of compound 2” as used herein is corrected for the decay of fluorine-18.\nFormulation 1 was prepared containing 3 μg/mL of Compound 1 (according to 3.3 μg/mL HCl salt of compound 1). The assay was analysed after preparation and after 12 hours storage according to the short shelf life of PET imaging tracer, typically expected between 6 and 10 hours. Eight individual batches were prepared and analysed for assay.\nTable 1 indicates the results of stability testing after 12 hours of n=8 individually manufactured batches.\nMinisart HY 0.2 μm is a sterile filter with PTFE hydrophobic membrane."}, "[2]": {"assay": "Hydrophobic filters and adsorption: Compound 1 concentration before and after sterile filtration of 10 mL Formulation 1", "assay_type": "physicochemical", "conditions": "for Filtrate (%) / Adsorption: n=6", "experimental": "Formulation 1 comprising compound 1 was prepared as indicated above and filtered using selected sterile filters. Adsorption of compound 1 was determined by measuring the concentration of Compound 1 before and after filtration of 10 mL of Formulation 1 and subsequent calculation of the adsorption. Table 2 indicates the results of adsorption experiments using different filters."}, "[3]": {"conditions": "Formulation 1, Pall HP2002 0.2 μm, Versapor R hydrophobic"}}}
{"smiles": "CNc1ccc(/C=C/c2ccc(OCCOCCOCCF)cc2)cc1", "note": "[Compound 1]", "values": [{"measurement": "Visual Inspection", "setting": "[1]; Formulation 1, 3 μg/mL Compound 1 (3.3 μg/mL HCl salt), 12 h storage at RT, n=8 batches", "value": "clear"}, {"measurement": "ΔFiltration in %", "setting": "[1]; Formulation 1, 12 h at RT, n=8, Minisart HY 0.2 μm", "value": 1.9, "unit": "%"}, {"measurement": "Content of Compound 1 in % after 12 h, after filtration (Minisart HY 0.2 μm)", "setting": "[1]; Formulation 1, 12 h at RT, n=8, PTFE sterile filter, relative to concentration after preparation", "value": 97.0, "unit": "%"}, {"measurement": "Content of Compound 1 in % after 12 h, prior filtration", "setting": "[1]; Formulation 1, 12 h at RT, n=8, relative to concentration after preparation (2.97 to 3.14 μg/mL)", "value": 98.9, "unit": "%"}, {"measurement": "Chemical stability in the formulation", "setting": "[1]; Formulation 1, 12 hours, RT", "value": "chemically stable"}, {"measurement": "Filtrate (%)", "setting": "[2]; Formulation 1, Millex GV 0.22 μm (Millipore, SLGV033RS), PVDF", "value": "94.0 ± 0.7", "unit": "%"}, {"measurement": "Adsorption", "setting": "[2]; Formulation 1, Millex GV 0.22 μm (SLGV033RS), PVDF", "value": 6.0, "unit": "%"}, {"measurement": "Adsorption", "setting": "[2]; Formulation 1, Minisart HY 0.2 μm (16596-HYK), PTFE", "value": 1.2, "unit": "%"}, {"measurement": "Filtrate (%)", "setting": "[2]; Formulation 1, Minisart HY 0.2 μm (Sartorius Stedim, 16596-HYK), PTFE", "value": "98.8 ± 0.6", "unit": "%"}, {"measurement": "Adsorption", "setting": "[2]; Formulation 1, Minisart High Flow 0.2 μm (16532), polyethersulfone", "value": 36.1, "unit": "%"}, {"measurement": "Filtrate (%)", "setting": "[2]; Formulation 1, Minisart High Flow 0.2 μm (Sartorius Stedim, 16532), polyethersulfone", "value": "63.9 ± 1.8", "unit": "%"}, {"measurement": "Adsorption", "setting": "[2]; Formulation 1, Minisart SRP25 0.2 μm (17575), PTFE", "value": 0.6, "unit": "%"}, {"measurement": "Filtrate (%)", "setting": "[2]; Formulation 1, Minisart SRP25 0.2 μm (Sartorius Stedim, 17575), PTFE", "value": "99.4 ± 0.3", "unit": "%"}, {"measurement": "Adsorption", "setting": "[2]; [3]", "value": 14.2, "unit": "%"}, {"measurement": "Filtrate (%)", "setting": "[2]; [3]", "value": "85.8 ± 0.3", "unit": "%"}, {"measurement": "Amount of compound 1 adsorbed onto the filter material", "setting": "[2]; filter units containing PTFE and PVDF", "value": "low amount"}]}
